Experimental data from patent publication US20020004958A1, “Dyeing substrates” (Novozymes A/S, priority 1996, published 2002).
“Also recorded” adds a separate entry of the source.

Key:
[1] = target: T1, horseradish peroxidase type VI-A (Armoracia rusticana, UniProt P00433); test: Peroxidase-catalysed oxidation of substrates, initial velocity (absorbency 492 nm) vs substrate concentration, Michaelis/Menten; format: biochemical; conditions: for Kkat: Vmax/[E], worked out from peroxidase of 50,000 g/mol; for Properties as substrate for peroxidase (in words): peroxidase/hydrogen peroxide system, compared with OPD or 3,4-DABA
T1 construct: purchased Sigma 6782
T1 sequence (P00433 31-338 limits assumed): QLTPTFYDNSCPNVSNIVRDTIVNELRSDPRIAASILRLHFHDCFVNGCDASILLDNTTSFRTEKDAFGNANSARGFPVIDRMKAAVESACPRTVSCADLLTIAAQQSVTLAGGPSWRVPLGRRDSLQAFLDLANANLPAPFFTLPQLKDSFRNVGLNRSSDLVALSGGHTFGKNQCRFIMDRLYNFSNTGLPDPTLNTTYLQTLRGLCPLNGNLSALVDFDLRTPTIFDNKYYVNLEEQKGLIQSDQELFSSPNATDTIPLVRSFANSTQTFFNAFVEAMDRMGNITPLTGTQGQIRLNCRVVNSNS
Excerpt: Absorbancy at 492 nm was used as a measure of the course of the reaction. The initial velocity was taken to be the absorbancy at 492 nm two minutes after the addition of the peroxidase to a mixture of the substrate and hydrogen peroxide in a buffer with a pH of 5.0. The wavelength of 492 nm was chosen because it is employed in the standard assay procedures for OPD.
By varying the concentration of the substrate and at the same time measuring the initial velocity of the reaction it is posible to apply the Michaelis/Menten equation to the system.
Under ideal conditions the values determined experimentally will approach the value of the expression: [formula]
where [S] is the concentration of the substrate, Vmax is the maximum initial […] which is reached in the particular assay. Km is defined as the concentration of the substrate at Vmax/2. A small Km value will therefore be characteristic for an enzyme system where a low concentration of the substrates produces saturation of the enzyme.
The expression implies that the initial velocity will increase with increasing concentration of the substrate, but the curve for the velocity will flatten out and approach Vmax for very high concentrations of the substrate. In actual fact the parameter Kkat be calculated as Vmax/[E] where [E] is the molar concentration of the enzyme in the reaction. Kkat is the same as min^−1 and reflects the activity of the enzyme in a saturated solution upon the substrate.
The following solutions were prepared for use in the enzyme assay:
A 50 mM phosphate/citrate buffer with a pH of 5.0 was made by mixing a 50 mm Na2HPO4 solution and a 50 mm solution of citric acid. The pH was measured while mixing was in progress.
15 μl of a 30% solution of hydrogen peroxide (PERHYDROL, Merck) was thinned down with 25 ml of the assay buffer.
The stabilizing buffer for peroxidase, i.e. a buffer which stabilizes the enzyme, was prepared according to the method of Olsen and Little (1983). A 0.1M Na-acetate buffer, which was 0.5M in terms of CaCl2 was adjusted to pH 5.6.
10 mg of horseradish peroxidase type VI-A (Sigma no. 6782) were dissolved in 10 ml of the stabilizing buffer. This was stored at −15° C.
The standard peroxidase solution was diluted to 1:1000 with the 10 ml assay-buffer solution in 10 μl standard solution.
0.5 mmol of each substrate in 5 ml DMF.
The standard solutions were diluted by 1:10 with the assay buffer. Before being used the substrate solutions were diluted by 1:10. 0.5 ml of the standard solution was thinned down with 4.5 ml of the assay buffer.
The concentration of the peroxidase was held constant at 50 ng/ml during the whole investigation. By using the volume of substrate and the volumes of 10 vol-% DMF solution as given in table 4 it was possible to employ a constant reaction volume and a constant concentration of DMF. For all measurements there was used 1550 μl buffer and 50 μl bench solution of peroxidase. The total volume is then as follows: 300 μI DMF and substrate solution, 1550 μl buffer, […] bench solution of peroxidase and 50 μl hydrogen peroxide solution. That is 2000 μl in total.
The results of the measurements of initial velocities are stated in units of absorbency and not in molar units. In order to be able to measure the “true” velocity of reaction it is necessary to isolate the oxidation product for each substrate and determine the molar extinction coefficient. The value of Kkat is worked out from 1 mole of peroxidase of 50,000 g/mol.

[2] = background statement; cited from earlier work
[3] = system: Salmonella tphimurium TA 98; test: Ames test for mutagenicity, with and without S9-mix; format: cell-based; conditions: 100 μl of 50, 100 and 200 mM solutions in DMSO, with and without rat liver S9-mix
Procedure: The Ames test (Maron and Ames (1983)) was used to determine the mutagenic properties of the compounds. Nutrient media were prepared in the manner described by Venitt and Parry (1984). To 3×2 ml melted agar at 45° C. were added 100 μl of 50, 100 and 200 mM of solutions of the compounds dissolved in DMSO. By means of a pipette 100 μl of a well-grown culture of Salmonella tphimurium TA 98 (BIO-TEST gl. skolevej 47, 6731 Tiaereborg) were added to the same test-tube. The bacteria contain a frameshift mutation on the histinol-dehydrogenase gene and require histidin in order to grow. Mutagenic aromatic amines can cause the bacteria to mutate to His+ and they can then grow on the nutrient medium. The number of colonies after incubation therefore give a quantitative measure of the ability of the added compound to cause mutation. In all trials spontaneous mutations take place in the absence of a mutagen. These provide a measure of “background” mutation.
All trials were therefore carried out both with and without the addition of “S9-mix” from the livers of rats, this contains the P450 system. 0.5 ml of […] was added to each test-tube. The criteria for mutation are that increasing concentrations of the compound under investigation give a marked increase in the number of His+ mutants.

Row | SMILES | Kkat [1] | Properties as substrate for peroxidase (in words) [1] | melting point | further results
1 | Nc1ccc(C(=O)O)cc1N [3,4-DABA, 3,4-diamino benzoic acid] | 2.0 * 10^8 1*mol^−1*min^−1 | considerably poorer substrate for peroxidase than is OPD; also recorded: higher Km-value at the same Vmax when compared with OPD |  | 
2 | CCn1c(=NN=c2sc3cc(S(=O)(=O)O)ccc3n2CC)sc2cc(S(=O)(=O)O)ccc21 [ABTS, 2,2-azino-di (3-ethyl-benzo thiazolin-6-sulphonic acid)] |  |  |  | Mutagenicity (known) [2]: mutagent
3 | Nc1ccccc1N [OPD, o-phenylendiamine] | 1.6 * 10^8 1*mol^−1*min^−1 |  |  | Carcinogenicity (known) [2]: carcinogenic; Mutagenicity (known) [2]: mutagenic; also recorded: not a direct mutagen; Mutagenic properties (His+ mutants with increasing concentration) [3]: has mutagenic properties
4 | Nc1ccc(C(=O)O)cc1 [PABA, p-amino benzoic acid] |  |  |  | Toxicity (generally considered) [2]: non-toxic
5 | Nc1ccccc1 [aniline] |  |  |  | Toxicity (generally considered) [2]: very toxic
6 | CCOC(=O)c1ccc(N)c(N)c1 [ethyl ester, 3,4-diamino benzoic acid ethyl ester] | 2.7 * 10^8 1*mol^−1*min^−1 | significantly improved properties than 3,4-DABA; also recorded: very high Vmax | 112 to 113 °C | 
7 | CC(C)OC(=O)c1ccc(N)c(N)c1 [isopropyl ester, 3,4-diamino benzoic acid isopropyl ester] | 2.2 * 10^8 1*mol^−1*min^−1 | significantly improved properties than 3,4-DABA | 73 to 74 °C | 
8 | COC(=O)c1ccc(N)c(N)c1 [methyl ester, 3,4-diaminobenzoic acid methyl ester] | 2.2 * 10^8 1*mol^−1*min^−1 | significantly improved properties than 3,4-DABA | 108 to 109 °C | 
